The assay deals with T1, E. coli Histidine Triad Nucleotide Binding Protein 1 (ecHinT) (Escherichia coli, UniProt P0ACE7).
T1 construct: gene hinT
The assay can be described thus: spectrophotometric phosphoramidase assay. The class given is biochemical.

T1 sequence (P0ACE7 whole entry): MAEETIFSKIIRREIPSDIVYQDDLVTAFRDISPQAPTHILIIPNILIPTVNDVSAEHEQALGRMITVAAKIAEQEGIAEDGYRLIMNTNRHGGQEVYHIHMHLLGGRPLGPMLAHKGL

Consider `Nc1nc2c(ncn2[C@@H]2O[C@H](COC(=O)NCCc3c[nH]c4ccccc34)[C@@H](O)[C@H]2O)c(=O)[nH]1` [TpGc, 5′-O-[(3-indolyl)-1-ethyl]carbamoyl guanosine], for which the affinity, expressed as Ki, was 42 µM.

The record behind these values is article PMC3130732, “E. coli Histidine Triad Nucleotide Binding Protein 1 (ecHinT) Is a Catalytic Regulator of D-Alanine Dehydrogenase (DadA) Activity In Vivo” (PLoS ONE, 2011).
